Assays:
Cannabinoid receptor 1 = Cannabinoid receptor 1 (Rattus norvegicus, UniProt P20272); experiment: (§1) As used herein, the term T-type calcium channel blocker refers to a compound that can modulate, in particular inhibit or reduce activation of T-type calcium channels. […] The term about refers to ±20%, typically ±10%, and often ±5% of the numeric value.
Cannabinoid receptor 2 = Cannabinoid receptor 2 (Homo sapiens, UniProt P34972); experiment: as §1
Chain of Cannabinoid receptor 2 (P34972 whole entry): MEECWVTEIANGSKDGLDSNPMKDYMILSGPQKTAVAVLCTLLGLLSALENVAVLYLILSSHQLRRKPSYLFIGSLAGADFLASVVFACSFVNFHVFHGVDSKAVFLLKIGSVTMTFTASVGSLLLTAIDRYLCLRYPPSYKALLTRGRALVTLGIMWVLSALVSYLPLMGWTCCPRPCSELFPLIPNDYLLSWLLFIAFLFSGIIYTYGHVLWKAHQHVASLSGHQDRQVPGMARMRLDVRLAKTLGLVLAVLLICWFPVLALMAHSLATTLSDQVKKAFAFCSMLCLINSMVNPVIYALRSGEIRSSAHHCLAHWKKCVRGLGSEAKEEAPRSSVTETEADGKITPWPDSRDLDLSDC

Chain of Cannabinoid receptor 1 (P20272 whole entry): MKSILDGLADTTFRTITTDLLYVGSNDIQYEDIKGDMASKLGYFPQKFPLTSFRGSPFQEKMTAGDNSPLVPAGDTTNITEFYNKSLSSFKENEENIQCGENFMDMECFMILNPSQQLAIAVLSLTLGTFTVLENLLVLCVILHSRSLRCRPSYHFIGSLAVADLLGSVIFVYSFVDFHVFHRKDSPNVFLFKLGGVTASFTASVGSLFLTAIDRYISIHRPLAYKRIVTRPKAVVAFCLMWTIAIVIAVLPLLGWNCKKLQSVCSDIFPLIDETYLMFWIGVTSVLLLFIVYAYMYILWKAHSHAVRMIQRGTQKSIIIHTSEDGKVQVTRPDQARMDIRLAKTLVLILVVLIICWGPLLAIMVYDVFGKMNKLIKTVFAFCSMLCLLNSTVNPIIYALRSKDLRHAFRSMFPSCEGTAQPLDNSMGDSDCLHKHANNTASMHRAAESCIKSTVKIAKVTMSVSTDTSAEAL

CCCCCn1c2ccccc2c2cc(C(=O)N3CCN(CC(=O)NC(C)(C)C)CC3)ccc21
Ki (Cannabinoid receptor 1): 15 nM | Ki (Cannabinoid receptor 2): 1970 nM

Reference: ChEMBL document CHEMBL5726728, “T-type calcium channel modulator and uses thereof” (2019)
